How the values were obtained:
DNA polymerase = details: eight termination assays, each with a different DNA polymerase; cited from earlier work
[1] = target: T1, polymerase (Thermococcus sp. 9° N exo −Y409V A485L) (Thermococcus sp., UniProt Q56366, A485L/D141A/E143A/Y409V); test: Multiple cycles of incorporation, deblocking and capping on hairpin DNA attached to streptavidin beads, analysed by gel; type: biochemical; details: 2 μM FFN, 100 nM polymerase, 65° C. 10-15 minutes; deblocking with TCEP 0.1M, 65° C. 15 minutes
T1 construct: purchased New England Biolabs
T1 sequence (Q56366 whole entry D141A/E143A/Y409V/A485L): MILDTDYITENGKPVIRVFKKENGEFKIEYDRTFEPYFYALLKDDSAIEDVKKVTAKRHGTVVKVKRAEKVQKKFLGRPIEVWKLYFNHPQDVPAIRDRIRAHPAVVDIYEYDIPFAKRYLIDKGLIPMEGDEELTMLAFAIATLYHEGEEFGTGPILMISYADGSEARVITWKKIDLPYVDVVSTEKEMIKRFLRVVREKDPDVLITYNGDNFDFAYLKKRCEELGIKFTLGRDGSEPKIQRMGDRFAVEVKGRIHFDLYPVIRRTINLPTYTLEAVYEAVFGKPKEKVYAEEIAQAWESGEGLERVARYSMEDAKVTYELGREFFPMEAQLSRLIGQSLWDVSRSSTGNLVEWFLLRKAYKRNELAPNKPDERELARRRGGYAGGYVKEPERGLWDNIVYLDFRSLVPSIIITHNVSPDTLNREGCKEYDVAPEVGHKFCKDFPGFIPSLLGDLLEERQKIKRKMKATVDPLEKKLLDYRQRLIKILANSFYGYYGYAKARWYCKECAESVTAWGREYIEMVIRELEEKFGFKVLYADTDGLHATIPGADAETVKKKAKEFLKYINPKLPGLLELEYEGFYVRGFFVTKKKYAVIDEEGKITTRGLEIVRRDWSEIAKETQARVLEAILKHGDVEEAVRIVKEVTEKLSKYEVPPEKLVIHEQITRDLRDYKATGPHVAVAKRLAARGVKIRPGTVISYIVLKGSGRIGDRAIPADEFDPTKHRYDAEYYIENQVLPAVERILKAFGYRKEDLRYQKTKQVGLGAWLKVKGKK
Experimental: By attaching a hairpin DNA (covalently attached self complementary primer/template) to a streptavidin bead The reaction can be performed over multiple cycles as shown in FIGS. 5 and 6.
Remove the storage buffer and wash the beads 3 times with TE buffer (Tris-HCl pH 8, 10 mM and EDTA, 1 mM). Resuspend in B & W buffer (10 mM Tris-HCl pH 7.5, 1 mM EDTA and 2.0 M NaCl), add biotinylated ^32P labelled hairpin DNA with appropriate overhanging template sequence. Allow to stand at room temperature for 15 minutes. Remove buffer and wash beads 3 times TE buffer.
To a solution of Tris-HCl pH 8.8 50 mM, Tween-20 0.01%, MgSO4 4 mM, MnCl2 0.4 mM (except cycle 1, 0.2 mM), add 2 μM FFN and 100 nM polymerase. This solution is then added to the beads and mixed thoroughly and incubated at 65° C. for 10-15 minutes. The reaction mixture is removed and the beads washed 3 times with TE buffer.
Tris-(2-carboxyethyl)phosphines trisodium salt (TCEP) (0.1M) is added to the beads and mixed thoroughly. The mixture was then incubated at 65° C. for 15 minutes. The deblocking solution is removed and the beads washed 3 times with TE buffer. […]
The reaction products can be analysed by placing the bead solution in the well of a standard 12% polyacrylamide DNA sequencing gel in 40% formamide loading buffer. […]

[2] = target: T1, polymerase (Thermococcus sp. 9° N exo −Y409V A485L); test: Enzyme incorporation of 3′-blocked dNTPs on a P32-labelled DNA primer/template, followed by a chase with native nucleoside triphosphates; type: biochemical
Experimental: (§1) To a 100 nM DNA primer/template (primer previously labelled with P32 and T4 polynucleotide kinase) in Tris-HCl pH 8.8 50 mM, Tween-20 0.01%, and MgSO4 4 mM, add 2 μM compound 6 and 100 nM polymerase (Thermococcus sp. 9° N exo ^−Y409V A485L supplied by New England Biolabs). The template consists of a run of 10 adenine bases to show the effect of the block. The reaction is heated to 65 C for 10 mins. To show complete blocking, a chase is performed with the four native, unblocked nucleoside triphosphates.
as §1, with “compound 38” for “compound 6”

Row | SMILES | ability to terminate DNA synthesis (DNA polymerase) | cycles of incorporation [1] | incorporation of the blocked nucleotide ([2]; 2 μM compound, 100 nM polymerase, 100 nM primer/template, template with run of 10 adenine bases, 65 C for 10 mins) | block to further incorporation ([2]; chase with the four native, unblocked nucleoside triphosphates)
1 | C=CCO[C@H]1C[C@H](n2cnc3c(N)ncnc32)O[C@@H]1COP(=O)(O)OP(=O)(O)OP(=O)(O)O [3′-allyl dATP, 3′allyl deoxyriboadenosine 5′-triphosphate] | terminate DNA synthesis in a single termination assay, out of eight | – | – | –
2 | CCN1/C(=C/C=C/C2=[N+](CCCCCC(=O)NCCSSCCC(=O)NCC#Cc3cn(C4CC(OCN=[N+]=[N-])C(COP(=O)(O)OP(=O)(O)OP(=O)(O)O)O4)c(=O)[nH]c3=O)c3ccc(S(=O)(=O)[O-])cc3C2(C)C)C(C)(C)c2cc(S(=O)(=O)O)ccc21 (centres unmarked) [compound 6] | – | six | Quantitative incorporation | effective block to further incorporation
3 | CCN1/C(=C/C=C/C2=[N+](CCCCCC(=O)NCCSSCCC(=O)NCC#Cc3cn([C@H]4CC(OCN=[N+]=[N-])[C@@H](COP(=O)(O)OP(=O)(O)OP(=O)(O)O)O4)c4nc(N)[nH]c(=O)c34)c3ccc(S(=O)(=O)[O-])cc3C2(C)C)C(C)(C)c2cc(S(=O)(=O)O)ccc21 (some centres unmarked) [compound 24] | – | Two and two | – | –
